Source: the NIST ThermoML archive (doi:10.1021/je800017j)
Numbers after ± are expanded uncertainties.

Assay: xn = mol fraction of the nth substance listed
Settings: Liquid, Vibrating tube method

C=CC [propene] + CC(C)O
Settings | mass density [kg/m3]
300.11 K, 966.7 kPa, x1 = 0.5201 | 644.49 ± 0.68
300.11 K, 1373.3 kPa, x1 = 0.5201 | 645.21 ± 0.68
300.11 K, 1835.6 kPa, x1 = 0.5201 | 645.98 ± 0.68
300.11 K, 2340.9 kPa, x1 = 0.5201 | 646.83 ± 0.68
300.11 K, 2812.4 kPa, x1 = 0.5201 | 647.62 ± 0.69
300.11 K, 3330.1 kPa, x1 = 0.5201 | 648.49 ± 0.69
300.11 K, 3817.5 kPa, x1 = 0.5201 | 649.27 ± 0.69
300.11 K, 4386.1 kPa, x1 = 0.5201 | 650.18 ± 0.69
300.11 K, 4873.7 kPa, x1 = 0.5201 | 650.95 ± 0.69
300.11 K, 5375.2 kPa, x1 = 0.5201 | 651.72 ± 0.7
300.11 K, 5888.8 kPa, x1 = 0.5201 | 652.52 ± 0.7
300.11 K, 6442 kPa, x1 = 0.5201 | 653.35 ± 0.7
300.11 K, 6942.8 kPa, x1 = 0.5201 | 654.09 ± 0.71
300.11 K, 7498.2 kPa, x1 = 0.5201 | 654.9 ± 0.71
300.11 K, 8104.7 kPa, x1 = 0.5201 | 655.77 ± 0.71
300.11 K, 8671.8 kPa, x1 = 0.5201 | 656.58 ± 0.71
300.11 K, 9226.7 kPa, x1 = 0.5201 | 657.35 ± 0.72
300.11 K, 9787 kPa, x1 = 0.5201 | 658.16 ± 0.72
300.12 K, 1068.5 kPa, x1 = 0.6478 | 608.06 ± 0.65
300.12 K, 1486.5 kPa, x1 = 0.6478 | 608.93 ± 0.65
300.12 K, 1740.6 kPa, x1 = 0.6478 | 609.48 ± 0.65
300.12 K, 2123.8 kPa, x1 = 0.6478 | 610.19 ± 0.65
300.12 K, 2620 kPa, x1 = 0.6478 | 611.17 ± 0.66
300.12 K, 2986.8 kPa, x1 = 0.6478 | 611.92 ± 0.66
300.12 K, 3495.3 kPa, x1 = 0.6478 | 612.85 ± 0.66
300.12 K, 3829 kPa, x1 = 0.6478 | 613.59 ± 0.66
300.12 K, 4193.5 kPa, x1 = 0.6478 | 614.26 ± 0.66
300.12 K, 4542.8 kPa, x1 = 0.6478 | 614.93 ± 0.67
300.12 K, 4905.4 kPa, x1 = 0.6478 | 615.61 ± 0.67
300.12 K, 5263.7 kPa, x1 = 0.6478 | 616.27 ± 0.67
300.12 K, 5634.1 kPa, x1 = 0.6478 | 616.94 ± 0.67
300.12 K, 6011.3 kPa, x1 = 0.6478 | 617.61 ± 0.68
300.12 K, 6395.3 kPa, x1 = 0.6478 | 618.28 ± 0.68
300.12 K, 6788.6 kPa, x1 = 0.6478 | 618.96 ± 0.68
300.12 K, 7165.4 kPa, x1 = 0.6478 | 619.61 ± 0.68
300.12 K, 7558.1 kPa, x1 = 0.6478 | 620.28 ± 0.68
300.12 K, 7960.1 kPa, x1 = 0.6478 | 620.96 ± 0.69
300.12 K, 8377.2 kPa, x1 = 0.6478 | 621.66 ± 0.69
300.12 K, 8785.5 kPa, x1 = 0.6478 | 622.34 ± 0.69
300.12 K, 9234.2 kPa, x1 = 0.6478 | 623.05 ± 0.7
300.12 K, 9682.1 kPa, x1 = 0.6478 | 623.79 ± 0.7
300.14 K, 529.4 kPa, x1 = 0.2011 | 731.63 ± 0.75
300.14 K, 1051.3 kPa, x1 = 0.2011 | 732.17 ± 0.75
300.14 K, 1483.6 kPa, x1 = 0.2011 | 732.72 ± 0.76
300.14 K, 1954.4 kPa, x1 = 0.2011 | 733.24 ± 0.76
300.14 K, 2384 kPa, x1 = 0.2011 | 733.72 ± 0.76
300.14 K, 2798.6 kPa, x1 = 0.2011 | 734.18 ± 0.76
300.14 K, 3273.1 kPa, x1 = 0.2011 | 734.68 ± 0.76
300.14 K, 3740.2 kPa, x1 = 0.2011 | 735.18 ± 0.76
300.14 K, 4186.3 kPa, x1 = 0.2011 | 735.68 ± 0.76
300.14 K, 4728.6 kPa, x1 = 0.2011 | 736.23 ± 0.76
300.14 K, 5235.6 kPa, x1 = 0.2011 | 736.78 ± 0.77
300.14 K, 5767.3 kPa, x1 = 0.2011 | 737.3 ± 0.77
300.14 K, 6274.7 kPa, x1 = 0.2011 | 737.83 ± 0.77
300.14 K, 6832.5 kPa, x1 = 0.2011 | 738.41 ± 0.77
300.14 K, 7291.5 kPa, x1 = 0.2011 | 738.89 ± 0.77
300.14 K, 7811.8 kPa, x1 = 0.2011 | 739.42 ± 0.77
300.14 K, 8296.6 kPa, x1 = 0.2011 | 739.9 ± 0.77
300.14 K, 8810.3 kPa, x1 = 0.2011 | 740.41 ± 0.78
300.14 K, 9337.7 kPa, x1 = 0.2011 | 740.91 ± 0.78
300.14 K, 9886.4 kPa, x1 = 0.2011 | 741.45 ± 0.78
325.05 K, 1613.1 kPa, x1 = 0.5201 | 613.41 ± 0.65
325.05 K, 1977.7 kPa, x1 = 0.5201 | 614.26 ± 0.66
325.05 K, 2359 kPa, x1 = 0.5201 | 615.15 ± 0.66
325.05 K, 2717.2 kPa, x1 = 0.5201 | 615.98 ± 0.66
325.05 K, 3167.8 kPa, x1 = 0.5201 | 616.93 ± 0.66
325.05 K, 3506.1 kPa, x1 = 0.5201 | 617.74 ± 0.67
325.05 K, 3888.8 kPa, x1 = 0.5201 | 618.59 ± 0.67
325.05 K, 4321.6 kPa, x1 = 0.5201 | 619.52 ± 0.67
325.05 K, 4676.7 kPa, x1 = 0.5201 | 620.29 ± 0.67
325.05 K, 5061.4 kPa, x1 = 0.5201 | 621.12 ± 0.67
325.05 K, 5471.8 kPa, x1 = 0.5201 | 621.94 ± 0.68
325.05 K, 5880.1 kPa, x1 = 0.5201 | 622.78 ± 0.68
325.05 K, 6293.6 kPa, x1 = 0.5201 | 623.65 ± 0.68
325.05 K, 6704.3 kPa, x1 = 0.5201 | 624.42 ± 0.68
325.05 K, 7171.7 kPa, x1 = 0.5201 | 625.34 ± 0.69
325.05 K, 7597.4 kPa, x1 = 0.5201 | 626.18 ± 0.69
325.05 K, 8037.5 kPa, x1 = 0.5201 | 627.02 ± 0.69
325.05 K, 8556.5 kPa, x1 = 0.5201 | 628.02 ± 0.7
325.05 K, 9078.1 kPa, x1 = 0.5201 | 628.97 ± 0.7
325.05 K, 9631.3 kPa, x1 = 0.5201 | 629.98 ± 0.7
325.09 K, 810.9 kPa, x1 = 0.2011 | 703.07 ± 0.73
325.09 K, 1218.9 kPa, x1 = 0.2011 | 703.59 ± 0.73
325.09 K, 1608.7 kPa, x1 = 0.2011 | 704.14 ± 0.73
325.09 K, 2001.8 kPa, x1 = 0.2011 | 704.7 ± 0.73
325.09 K, 2383.7 kPa, x1 = 0.2011 | 705.3 ± 0.73
325.09 K, 2827.6 kPa, x1 = 0.2011 | 705.86 ± 0.73
325.09 K, 3159.2 kPa, x1 = 0.2011 | 706.38 ± 0.74
325.09 K, 3707.9 kPa, x1 = 0.2011 | 707.07 ± 0.74
325.09 K, 4123.6 kPa, x1 = 0.2011 | 707.68 ± 0.74
325.09 K, 4528.5 kPa, x1 = 0.2011 | 708.19 ± 0.74
325.09 K, 4925.3 kPa, x1 = 0.2011 | 708.73 ± 0.74

Settings | mass density [kg/m3]
300.11 K, x1 = 0.5201 | 644.42 ± 0.67
300.12 K, x1 = 0.6478 | 607.97 ± 0.64
300.14 K, x1 = 0.2011 | 731.63 ± 0.75
325.05 K, x1 = 0.5201 | 613.29 ± 0.65
